Results on two compounds are retold here after patent US20060216820A1, “Use of retinoic esters of hyaluronic acid for the differentiation of totipotent stem cells” (SINTOFARM S.P.A., priority 2003, published 2006).

In assay [1] the test system is P19 cells. Conditions: cited from earlier work.
The test system of assay [2] is human totipotent stem cells. The conditions noted are these: totipotent stem cells (Xu et al. 2002); cited from earlier work.
For assay [3], the system named is GTR1 stem cells. Kind of assay: RT-PCR detection of cardiospecific transcripts (MHC, MLC) in GTR1 cells. In kind it is cell-based, murine. The conditions noted are these: 1 μM chelerithrine with retinoic esters of hyaluronic acid 0.75 mg/ml, 10 days; puromycin-selected cardiomyocytes. The text has this: Analysis of gene expression. Total RNA has been extracted from stem cells as described by Ventura et al. (Ventura C et al. J Biol. Chem. 1997; 272: 6685-6692). The levels of specific mRNAs have been analyzed by “RNase protection”, using [^32P]CTP radiolabeled cRNA probes (antisense mRNA) specific for each transcript of interest, according to a previously described protocol (Ventura C et al. J Biol. Chem. 1997; 272:6685-6692). Briefly, fragments corresponding to the main exons of GATA-4 (292 bp), Nkx-2.5 (414 bp) and prodynorphin (424 bp) genes have been inserted in the vector pCRII-TOPO (Invitrdgen). Transcription of the vector linearized With ApaI, BamHI, or XbaI respectively generated sense strand mRNA of prodynorphin, GATA-4, or Nkx-2.5. Transcription in presence of [^32P]CTP of the plasmid linearized with BamHI produced the antisense mRNA strand of prodynorphin and Nkx-2.5, while transcription of the vector linearized with XbaI generated the antisense mRNA strand of GATA-4. In some experiments the analysis of mRNA expression has been performed by means of RT-PCR, as described in (Ventura C, Maioli M. Circ Res. 2000:87:189-194).
GTR1 stem cells were used in these studies. […]

Assay [4] deals with GTR1 stem cells. Kind of assay: In vitro nuclear run-off transcription in nuclei from treated GTR1 cells. Conditions: 1 μM chelerithrine with retinoic esters of hyaluronic acid 0.75 mg/ml, 10 days; puromycin-selected cardiomyocytes. Type of assay: cell-based, murine. From the text:
Gene transcription studies. Gene transcription rate has been analyzed in nuclei isolated by an approach of “in vitro nuclear run-off transcription”, previously described (Ventura C., J Biol Chem. 1997; 272:6685-6692.; Ventura C. et al. J Biol. Chem. 1998; 273:13383-13386.). Briefly, nuclei have been resuspended in buffer containing 50 mmol/L Tris/HCl, pH 8.0, 5 mmol/L MgCl2, 0.1 mmol/L EDTA, 40% glycerol, 0.1 mmol/L dithiothreitol, 0.5 mmol/L phenylmethylsulfonylfluoride, 1 μmol/L leupeptin, and 10 mmol/L β-mercaptoethanol. 100 μl of 2× reaction buffer (10 mmol/L Tris/HCl, pH 7.5, 5 mmol/L MgCl2, 0.3 mol/L KCl, 5 mmol/L dithiothreitol, 1 mmol/L of ATP, GTP, and CTP), and 5 μl of [α-^32P]UTP (3000 Ci/mmol) have been added to the nuclear suspension (90 μl). Samples were then incubated at room temperature for 15 min. The reaction has been stopped by digesting the DNA in presence of RNase-free DNase. The nuclear RNA has been isolated as described in Ventura C et al. J Biol Chem. 1997; 272:6685-6692. Approximately 5×10^6 cpm of ^32P labeled nuclear RNA were hybridized for 12 hours at 55° C. in presence of cold (not radioactive) probes of antisense mRNA of GATA-4, Nkx-2.5 or prodynorphin, generated, as described above, in absence of radiolabeled ribonucleotides. […]

In the case of `C[S+](C)[O-]` [DMSO, dimethylsulfoxide], in assay [1] (P19 cells in presence of DMSO), the “cells that differentiate in embryonic cardiomyocytes” value is listed as 15-20%. Further, the “overall efficiency of cardiogenic effect” value in assay [1] (pluripotent murine cells in vitro) is on record as “rather low”. Besides, the “percentage of totipotent stem cells undergoing cardiomyocyte differentiation” value in assay [2] is reported as “unable to produce a significant increase”.
Take `COc1ccc2c(c[n+](C)c3c4cc5c(cc4ccc23)OCO5)c1OC` [chelerithrine]: the “effect of chelerithrine on the ester-induced expression of cardiospecific genes (MHC, MLC)” value in assay [3] is “antagonized”. The “effect of chelerithrine on the ester-induced expression/transcription of cardiogenic genes (GATA-4, Nkx-2.5, prodynorphin)” value in assay [4] was “antagonized”.
